Results taken from patent publication US10335388B2, “Combination therapy of a HIF-2-alpha inhibitor and an immunotherapeutic agent and uses thereof” (PELOTON THERAPEUTICS, INC., priority 2015, dated 2019).

Experiments:
[1] = test system: CT26.WT mouse carcinoma cells; assay: Mouse colon CT26 syngeneic tumor model; conditions: BALB/c mice, after 20 days of treatment; Compound 163 30 mg/kg BID, α-CTLA-4 or IgG control 10 mg/kg BIW
[2] = test system: B16-F10 mouse melanoma cells; assay: Mouse melanoma B16-F10 syngeneic tumor model; conditions: C57BL/6 mice, after 14 days of treatment; Compound 163 30 mg/kg BID, α-PD-1 or IgG control 10 mg/kg BIW
786-O-Hif-Luc cells = assay: Luciferase assay (HIF responsive element reporter); conditions: 24 h, read-out: Mean Luciferase EC50 (nM)
Method: A pool of infected cells were then selected against 2 μg/mL of puromycin (P8833, Sigma) for 10 days followed by limited dilution to select single clones.
Each concentration was tested in triplicate. After about 24 hours, luciferase activity was determined using ONE-Glo Luciferase Assay Reagent (E6110, Promega) following the manufacturer's recommended procedure. EC50 were calculated using Dotmatics software.

With `CS(=O)(=O)c1ccc(Oc2cc(F)cc(C#N)c2)c2c1[C@H](O)C(F)(F)C2` [Compound 163, (S)-3-((2,2-Difluoro-1-hydroxy-7-(methylsulfonyl)-2,3-dihydro-1H-inden-4-yl)oxy)-5-fluorobenzonitrile] the “Tumor size (mm^3) Mean ± SEM” value [1] was 1612 ± 305 mm^3, the “Tumor size (mm^3) Mean ± SEM” value [2] was 2133.89 ± 306.44 mm^3 and the EC50 (786-O-Hif-Luc cells) was < 50 nM.
